Laboratory results: PMC10922478 (Environmental research, 2023)

What was measured:
[1] = assay type: in vivo; conditions: human urine after limonene inhalation
[2] = Stable isotope tracing in mouse urine after i.p. limonene or limonene-d5; conditions: after limonene / limonene-d5 66.8 mg/kg i.p.; overnight urine
[3] = ref Falk-Filipsson et al., 1993; cited from earlier work

## C=C(C)C1CCC(C(=O)O)CC1 (stereo not drawn) [LM1, DHPA]
[1]; creatinine-normalized peak response
  Observed Tmax: 1 h
[1]; pseudo one-compartment model
  Elimination t1/2: 1.01 ± 0.40 h
  Ka (first-order urinary generation rate constant): 0.93 ± 0.37 h⁻¹
  Ke (first-order urinary elimination rate constant): 0.68 ± 0.27 h⁻¹
[2]
  Detection in mouse urine: absent

## C=C(C)[C@H]1CC=C(C)CC1 [Limonene]
[3]
  Half-life in blood (t1/2α): ~ 3 min
